This is an account of results in paper PMC7830115, “Design, Synthesis, Molecular Docking, and Tumor Resistance Reversal Activity Evaluation of Matrine Derivative with Thiophene Structure” (Molecules, 2021).

Each structure is given as a SMILES string.

Format in all cases: cell-based
The subject of one experiment is HK-1. The experiment in a line: MTT cytotoxicity assay, HK-1. Particulars: HK-1, 72 h, mean ± SD. The method, then:
(§1) Prior to determining the combined inhibitory effects against NPC CDDP-resistance cells, the cytotoxicity effects of these 8 derivatives were evaluated against three NPC cell lines (CNE2, HONE1, and HK-1) and CDDP resistance cell line (CNE2/CDDP) by using MTT (3-(4,5-dimethyl-2-thiazolyl)-2,5-diphenyl-2-H-tetrazolium bromide) assays. […] Moreover, a liver normal cell LO2 was involved to evaluate the selectivity of these 8 compounds by using MTT assays.
(§2) Nasopharyngeal carcinoma cells (CNE2, HONE1, and CNE2/CDDP) were purchased from Shanghai Aulu Biological Technologh Co., Ltd. (Shanghai, China). HK-1 cell was purchased from Shanghai Shunran Biological Technologh Co., Ltd. CNE2, HONE1, and HK-1 were cultured in DMEM medium supplemented with 10% fetal bovine serum, 1% penicillin-streptomycin. CDDP-resistant NPC cell CNE2/CDDP was cultured in DMEM medium supplemented with CDDP to sustain its drug resistance. Cell viability was detected using the MTT assay. All the 8 derivatives were resolved with DMSO to make a storage solution at 1 M, and CDDP was resolved with phosphate buffer saline (PBS) to make a storage solution at 100 mM. The maximum concentrations of these 8 derivatives and CDDP used in MTT assays were set as 1 mM and 100 µM diluted with DMEM medium, respectively. Medium with 0.1% DMSO was set as control. To begin, an initial MTT assay was conducted to evaluate the cytotoxicity of 3a~3h with a dose range of 50, 100, 200, 400, and 800 µM. Then, a more precise dose range was set to calculate the IC50 of each compound (For 3a~3e: 50, 100, 200, 400, 600, and 800 µM; for 3f~3h: 12.5, 25, 50, 100, 200, and 400 µM). Then, 5000 cells were seeded in a 96-well plate for each well and treated with respective compounds at different concentrations for 72 h following additional treatment with MTT for 2~3 h. Then, MTT was removed and 150 µL DMSO was added into each well and the absorption values were measured at 490 nm using a SpectraMAX M5plate reader (Silicon Valley, CA, USA).
(Formazan colour is commonly taken as a measure of viable cells.)

In another experiment the test system is LO2. The experiment in a line: MTT cytotoxicity assay, LO2 normal liver cell. Particulars: Homo sapiens, L02, 72 h, mean ± SD. The protocol:
as §1, §2

The subject of experiment [1] is NPC cell lines (CNE2, HONE1, and HK-1) and CDDP resistance cell line (CNE2/CDDP). The experiment can be described thus: MTT cytotoxicity, summary over NPC cell lines and CDDP resistance cell line. Particulars: range over CNE2, HONE1, HK-1 and CNE2/CDDP, read-out: IC50, anti-proliferative effects. The protocol:
as §1
(§3) Nasopharyngeal carcinoma cells (CNE2, HONE1, and CNE2/CDDP) were purchased from Shanghai Aulu Biological Technologh Co., Ltd. (Shanghai, China). HK-1 cell was purchased from Shanghai Shunran Biological Technologh Co., Ltd. CNE2, HONE1, and HK-1 were cultured in DMEM medium supplemented with 10% fetal bovine serum, 1% penicillin-streptomycin. CDDP-resistant NPC cell CNE2/CDDP was cultured in DMEM medium supplemented with CDDP to sustain its drug resistance. Cell viability was detected using the MTT assay. All the 8 derivatives were resolved with DMSO to make a storage solution at 1 M, and CDDP was resolved with phosphate buffer saline (PBS) to make a storage solution at 100 mM. […] Then, MTT was removed and 150 µL DMSO was added into each well and the absorption values were measured at 490 nm using a SpectraMAX M5plate reader (Silicon Valley, CA, USA).

In experiment [2] the test system is CNE2/CDDP cells. The experiment in a line: Combined inhibitory effect with CDDP, MTT. To be noted: co-treated with CDDP (5 µM) and compound at IC10, MTT. The method, then:
Compounds regularly show synergy effects with a relatively low dosage range (IC10 to IC30). In order to preliminarily verify whether 8 compounds could increase cell sensitivity to CDDP, CNE2/CDDP cells were co-treated with CDDP (5 µM) and each compound (IC10), respectively. The cytotoxicity was evaluated by using MTT assays. […] Thus, compound 3f was selected for further experiments.
as §3, with “mM. The maximum concentrations of these 8 derivatives and CDDP used in MTT assays were set as 1 mM and 100 µM diluted with DMEM medium, respectively.” for “mM.”, “USA). […]” for “USA).”

Experiment [3] has as its system CNE2/CDDP cells. The experiment can be described thus: Apoptosis assay (Annexin V-FITC/PI, FACS). Particulars: 24 h, mean ± SD. The method, then:
Subsequently, to further verify whether the synergistic effects of compound 3f with CDDP involved cell death, an apoptosis assay was conducted. CNE2/CDDP cells were co-treated with CDDP and compound 3f, or CDDP and 3f alone for 24 h. Then, cells were harvested for staining by using an apoptosis kit, following FACS detection (Figure 3a). Then, the data from three independent experiments were analyzed and the results were shown in the form of histogram (Figure 3b).
CNE2/CDDP cells (3 × 10^5) were seeded into a 6-well plate for each well. Twenty-four hours later, medium was removed and cells were treated with different compounds for […]. Then, cells were harvested, washed with cold PBS, and stained with Annexin V-FITC and PI for 15 min in dark. Finally, samples were analyzed by flow cytometer.
Figure 3 Compound 3f (40 µM) increased apoptosis rate of CDDP (4 µg/mL) in CNE2/CDDP cells. (a), representative apoptosis detection by FACS. (b), three independent experiments of apoptosis assays were analyzed and p-value was calculated. Data are represented as mean ± SD. Bar means SD value * p < 0.05, compared with CDDP; # p < 0.05, compared with 3f.

Take `S=C1C(=Cc2ccc(Cl)s2)CCC2C3CCCN4CCCC(CN12)C34` (stereo not drawn) [3f, 14-((5-chlorothiophen-2-yl)methylene)thiomatrine]: the figures for the IC50 (in the experiment with HK-1; in the experiment on LO2; in experiment [1]) were 51.3 ± 3.5 µM, 72 ± 5.8 µM and 30 to 100 µM, respectively. The “increase of the inhibitory effects of CDDP” value in the experiment on CNE2/CDDP cells [2] is on record as “could increase the inhibitory effects of CDDP”. Further, the “cell apoptosis, treatment alone” value in the experiment with CNE2/CDDP cells [3] (CDDP 4 µg/mL or 3f 40 µM alone, three independent experiments) came to 9.97 ± 1.36. The “cell apoptosis, combined treatment with CDDP” value with CNE2/CDDP cells [3] (CDDP (4 µg/mL) and 3f (40 µM) combined) is given as 15.53 ± 1.61.
